The subject of one series is rat BMECs. The experiment in a line: Cytotoxicity of apocynin derivatives on rat BMECs (MTT, 24 h). The note with it: 100 μM, vs control, P < 0.05. The series is classed as cell-based. The method, then: (§1) Rat brain microvascular endothelial cells (BMECs) were separated from the cerebral cortex of 18-day-old male Sprague-Dawley rats as described previously ([Biegel et al., 1995]). Briefly, the cerebral cortical tissues were dissected from meninges after the rats were sacrificed, then the tissues were homogenated in physiological buffer solution (pH 7.4). After centrifugation, the pellets were collected, and the microvascular segments were then digested with 0.1% collagenase II at 37°C for 1 h. […] The second passage was used for co-culture of BBB cellular models.
Rat BMECs were collected and seeded into 96-well culture plates at a density of 7.5 × 10^3 cells/well overnight. The cells were treated with different concentrations of the compounds (10, 20, and 100 μM) for 24 h, respectively. Then, 20-μl MTT (5 mg/ml) in fresh medium was added to each well and incubated for another 4 h. Finally, 150μl dimethyl sulfoxide (DMSO) was added to dissolve formazan crystals, and the absorbance was detected at 490 nm in a multiwall-plate reader (BioTek ELx800).

On the set-up of series [1]: method as in Wang et al., 2008. The note with it: ref Wang et al., 2008; cited from earlier work.
The nature of series [2]: Transport experiment in the in vitro BBB cell model. Format: in vitro ADME. As to conditions: Sprague-Dawley, rat, C0 20 μM, apical to basolateral, mean ± SD (n = 3-4), read-out: Papp × 10^−6. How it is done: as §1
Astrocytes were separated from the cerebral cortex of newborn Sprague-Dawley rats (1–2 days) as described previously ([Jeliazkova-Mecheva and Bobilya, 2003]). The brain tissues (removal of the meninges and blood vessel) were minced and mechanical homogenized and then digested with 0.25% trypsin-EDTA at 37°C for 10 min.
The in vitro BBB cell model was constructed in the Transwell 24well plate ([…], Millipore, USA). Before the experiment, the transwell filters were coated with matrigel matrix. The isolated rat astroglias were seeded onto one side of polycarbonate inserts (5 × 10^4 cells/insert). After 3 to 5 days, the rat BMECs were seeded at a density of 1.5 × 10^5 cells/insert onto the opposite side of the inserts to produce rat BMEC monolayers. The in vitro BBB cell model was formed 3 to 4 days. Trans-epithelial electrical resistance (TEER) measurements were performed everyday after the co-cultures formed until the TEER value increased to […] ([Yang et al., 2014]) ( Figure 2C ).
The transport experiments were performed by adding 400 μl HBSS containing the compounds to the apical side (AP), with 600μl HBSS to the basolateral side (BL) at the same time. Samples (60 μl) were collected from the BL chamber at the time points of 15, 30, 60, 90, 120, and 180 min, and the corresponding volume of HBSS buffer was immediately added into the BL chamber. The samples were precipitated by methanol, and the concentrations of the compounds in the samples were determined by high-performance liquid chromatography (HPLC). The HPLC conditions were as follows: Agilent TC-C18 column (250 × 4.6 mm; 5 μm), methanol 1% ethanoic acid mobile phase (from 10:90 to 90:10, v/v), with gradient elution at a flow rate of 1.0 ml/min. The detection wavelength was 275 nm for these compounds. The run time was 20 min. The apparent permeability coefficients (P app) were calculated from the following formula: P app = (∆Q/∆t)/(A × C 0), where ∆Q/∆t is the linear appearance rate of the compound on the BL side (μmol/s), A is the surface area of the cell monolayer (cm^2), and C 0 is the initial concentration of the drug on the AP side (μmol/L).

Series [3] relates to NADPH oxidase (NOX). The experiment in a line: NOX activity determination, U87 cells. The series is classed as cell-based, human. The note with it: 20 and 50 μM. How it is done:
(§2) The effects of candidate drug on NOX activities were measured using cytochrome c reductase (NADPH) Assay Kit (Sigma-Aldrich, St. Louis, MO, USA). Brieﬂy, after the compound treatment (20, 50 μM), the cells were collected and homogenized in an isotonic buffer ([…]), and centrifuged at 1,000 g to obtain the post-nuclear supernatants. Then 50μl samples were added to 950μl working solution (at 25°C) in a 1ml cuvette and mixed by inversion. Then 20μl cytochrome c oxidase inhibitor solution was added. After reaction with 100 μl NADPH solution, the cytochrome c absorbance was monitored at 550 nm by a spectrophotometer.

The subject of series [4] is NADPH oxidase (NOX). The experiment in a line: NOX activity determination, C6 cells. The series is classed as cell-based, rat. As to conditions: 20 and 50 μM. How it is done:
as §2

For orientation: Papp means the rate of passage across a membrane or cell layer, normalised by area and donor concentration.

For `COc1cc(C(C)=O)ccc1O` [Compound D1, 4-hydroxy-3-methoxyacetophenone, reference compound], the “Effect on cell viability of rat BMECs” value with rat BMECs is “significantly inhibit the cell viability”. The “Amount in the brain tissue relative to that present in the blood” value in series [1] is under 8%. Moreover, the Papp at 90 min, 20 μM in series [2] is 4.95 ± 0.39 ×10⁻⁶ cm/s. Also, the “Effect on NOX activities vs control” value with NADPH oxidase (NOX) [3] and in the series on NADPH oxidase (NOX) [4] was “significantly inhibited” in each case.

The values are drawn from article PMC6733959, “Synthesis and Evaluations of Novel Apocynin Derivatives as Anti-Glioma Agents” (Frontiers in Pharmacology, 2019).
